The target in assay [1] is T1, glutathione-S-transferase (GST) tagged LXRbeta LBD (ligand binding domain) (Homo sapiens, UniProt P55055).
T1 construct: purchased Invitrogen pv4658
T1 sequence (P55055 222-460 limits assumed): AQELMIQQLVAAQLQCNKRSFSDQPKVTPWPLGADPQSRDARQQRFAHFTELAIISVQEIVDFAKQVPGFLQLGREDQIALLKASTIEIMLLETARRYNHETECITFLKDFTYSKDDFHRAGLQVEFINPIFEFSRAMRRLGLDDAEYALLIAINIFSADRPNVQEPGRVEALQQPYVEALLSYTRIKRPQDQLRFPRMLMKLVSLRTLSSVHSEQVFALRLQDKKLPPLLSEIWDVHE
Put plainly: LanthaScreen TR-FRET Liver X Receptor Coactivator Assay, LXR beta. It counts as biochemical. To be noted: for pEC50: LXR beta IP, potency (Inflection Point), compound-induced co-activator recruitment, TR-FRET; for Emax: read-out: LXR beta actiivty at max dose, efficacy (% Emax) in relation to reference dual agonist T0901317. In short, it runs like this: (§1)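 Coactivator recruitment format: receptor LBD exposed to compounds, detection via Tb-antibody/fluorescein-peptide pair, room-temperature incubation, TR-FRET signal on a filter instrument.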
Background: TR-FRET usually uses a lanthanide donor and a delayed reading to cut background.

The target in assay [2] is T2, glutathione-S-transferase (GST) tagged LXRalpha LBD (ligand binding domain) (Homo sapiens, UniProt Q13133).
T2 construct: purchased Invitrogen pv4655
T2 sequence (Q13133 209-447 limits assumed): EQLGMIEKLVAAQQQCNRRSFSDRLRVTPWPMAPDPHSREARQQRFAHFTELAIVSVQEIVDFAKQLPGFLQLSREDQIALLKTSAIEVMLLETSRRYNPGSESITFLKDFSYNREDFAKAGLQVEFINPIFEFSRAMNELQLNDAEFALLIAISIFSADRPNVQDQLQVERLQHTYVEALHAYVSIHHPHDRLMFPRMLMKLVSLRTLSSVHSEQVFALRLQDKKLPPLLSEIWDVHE
As to the kind of experiment: biochemical. Summed up: as §1

Where [3] appears, read: potency (Inflection Point), compound-induced co-activator recruitment, TR-FRET.
Setting [4] is: read-out: LXR alpha actiivty at max dose, efficacy (% Emax) in relation to reference dual agonist T0901317.
Setting [5] is: LXR alpha IP, potency (Inflection Point), compound-induced co-activator recruitment, TR-FRET.
Where [6] appears, read: potency (Inflection Point), compound-induced co-activator recruitment, TR-FRET, read-out: LXR alpha IP.

pEC50: −log10 of the molar value. Like-named read-outs stand apart in the source and are kept apart here.

Take `COc1cccc([C@](O)(C(=O)N2CCC(C[C@H]3C[C@@H](Oc4ccc(C(=O)N(C)C)c(Cl)c4)C3)CC2)C(F)F)c1` (single isomer, unassigned) [Example 37-7, 2-chloro-4-((1R,3s)-3-((1-((R or S)-3,3-difluoro-2-hydroxy-2-(3-methoxyphenyl)propanoyl)piperidin-4-yl)methyl)cyclobutoxy)-N,N-dimethylbenzamide]: the pEC50 in assay [1] was 7.49. Further, the Emax is 95% in assay [1] and 4% in assay [2] (setting [4]). In addition, the “LXR alpha IP” value in assay [2] (setting [3]) is recorded as “No IP”.

As for `COc1cccc([C@@](O)(C(=O)N2CCC(C[C@H]3C[C@@H](Oc4ccc(C(=O)N(C)C)c(Cl)c4)C3)CC2)C(F)F)c1` (single isomer, unassigned) [Example 37-8, 2-chloro-4-((1R,3s)-3-((1-((R or S)-3,3-difluoro-2-hydroxy-2-(3-methoxyphenyl)propanoyl)piperidin-4-yl)methyl)cyclobutoxy)-N,N-dimethylbenzamide], in assay [1], the pEC50 was 6.45 and the Emax stood at 51%. The “LXR alpha IP” value in assay [2] (setting [3]) is listed as “No IP”. Also, the Emax in assay [2] (setting [4]) came to 0%.

Regarding `CN(C)C(=O)c1ccc(O[C@H]2C[C@@H](CC3CCN(C(=O)[C@](O)(c4cccc(OC(F)F)c4)C(F)(F)F)CC3)C2)cc1Cl` (single isomer, unassigned) [Example 37-9, 2-chloro-4-((1R,3s)-3-((1-((R or S)-2-(3-(difluoromethoxy)phenyl)-3,3,3-trifluoro-2-hydroxypropanoyl)piperidin-4-yl)methyl)cyclobutoxy)-N,N-dimethylbenzamide], the pEC50 in assay [1] was 7.80; in assay [2] (setting [5]), 5.99. In addition, the Emax in assay [1] was 111%; in assay [2] (setting [4]), 25%.

For `CN(C)C(=O)c1ccc(O[C@H]2C[C@@H](CC3CCN(C(=O)[C@](O)(c4cc(F)cc(Cl)c4)C(F)(F)F)CC3)C2)cc1Cl` (single isomer, unassigned) [Example 37-10, 2-chloro-4-((1R,3s)-3-((1-((R or S)-2-(3-chloro-5-fluorophenyl)-3,3,3-trifluoro-2-hydroxypropanoyl)piperidin-4-yl)methyl)cyclobutoxy)-N,N-dimethylbenzamide], the pEC50 in assay [1] was 8.30; in assay [2] (setting [5]), 6.50. Further, the Emax in assay [1] turned out to be 140%; in assay [2] (setting [4]), 46%.

For `CN(C)C(=O)c1ccc(OC2CC(CC3CCN(C(=O)[C@](O)(c4ccccc4)C(F)(F)F)CC3)C2)cc1Cl` (single isomer, unassigned) [Example 37-11, (R or S)-2-chloro-N,N-dimethyl-4-(3-((1-(3,3,3-trifluoro-2-hydroxy-2-phenylpropanoyl)piperidin-4-yl)methyl)cyclobutoxy) benzamide], the pEC50 is 7.04 in assay [1] and 6.25 in assay [2] (setting [6]). Moreover, the Emax in assay [1] was found to be 113%; in assay [2] (setting [4]), 33%.

Consider `Cc1cc(OC2CC(CC3CCN(C(=O)C(O)(c4cccc(OC5CC5)c4)C(F)(F)F)CC3)C2)ccc1C(=O)N(C)C` (single isomer, unassigned) [Example 37-12, (R or S)-4-(3-((1-(2-(3-cyclopropoxyphenyl)-3,3,3-trifluoro-2-hydroxypropanoyl)piperidin-4-yl)methyl)cyclobutoxy)-N,N,2-trimethylbenzamide], for which, in assay [1], the pEC50 is 7.20 and the Emax was 106%. Further, in assay [2] (setting [3]), the “LXR alpha IP” value is recorded as “No IP”. Besides, the Emax in assay [2] (setting [4]) came out at 0%.

As for `COc1cccc([C@@](O)(C(=O)N2CCC([C@H]3CC[C@@H](Oc4ccc(C(=O)N(C)C)c(Cl)c4)CC3)CC2)C(F)(F)F)c1` (single isomer, unassigned) [Example 38-1, 2-chloro-N,N-dimethyl-4-((1S,4s)-4-(1-((R or S)-3,3,3-trifluoro-2-hydroxy-2-(3-methoxyphenyl)propanoyl)piperidin-4-yl)cyclohexyloxy)benzamid], the results for the pEC50 in assay [1] and in assay [2] (setting [5]) were 8.52 and 7.31, respectively. The Emax in assay [1] is 89%; in assay [2] (setting [4]) it was 44%.

In the case of `CN(C)C(=O)c1ccc(OCCCC2CCN(C(=O)c3cc(F)ccc3F)CC2)cc1Cl` [Example 3-1, 2-chloro-4-(3-(1-(2,5-difluorobenzoyl)piperidin-4-yl)propoxy)-N,N-dimethylbenzamide], in assay [1], the pEC50 was 6.30 and the Emax amounted to 62%. In assay [2], the “LXR alpha IP” value is listed as “No IP”. The Emax in assay [2] (read-out: LXR alpha actiivty at max dose) came to 32%.

The molecule `CN(C)C(=O)c1ccc(OCCCCC2CCN(C(=O)C(C)(C)c3ccccc3)CC2)cc1Cl` [Example 3-6, 2-chloro-N,N-dimethyl-4-(4-(1-(2-methyl-2-phenylpropanoyl)piperidin-4-yl)butoxy)benzamide] showed a pEC50 in assay [1] of 7.11. The Emax turned out to be 64% in assay [1] and 8% in assay [2] (setting [4]). For the same molecule, in assay [2] (setting [3]), the “LXR alpha IP” value is “No IP”.

As for `CN(C)C(=O)c1ccc(OCCCCC2CCN(C(=O)C3(c4ccccc4)CCC3)CC2)cc1Cl` [Example 3-7, 2-chloro-N,N-dimethyl-4-(4-(1-(1-phenylcyclobutanecarbonyl)piperidin-4-yl)butoxy)benzamide], in assay [1], the pEC50 was 7.24 and the Emax was 54%. Further, in assay [2] (setting [3]), the “LXR alpha IP” value was “No IP”. Also, in assay [2] (setting [4]), the Emax amounted to 0%.

For the molecule `CN(C)C(=O)c1ccc(OCCCC2CCN(C(=O)c3c(F)cccc3F)CC2)nc1Cl` [Example 3-14, 2-chloro-6-(3-(1-(2,6-difluorobenzoyl)piperidin-4-yl)propoxy)-N,N-dimethylnicotinamide], in assay [1], the pEC50 was 6.80 and the Emax was 77%. In addition, the “LXR alpha IP” value in assay [2] (setting [3]) is “No IP”. Also, the Emax in assay [2] (setting [4]) came to 46%.

For `CN(C)C(=O)c1ccc(OCCCCC2CCN(C(=O)c3c(F)cccc3F)CC2)nc1Cl` [Example 3-15, 2-chloro-6-(4-(1-(2,6-difluorobenzoyl)piperidin-4-yl)butoxy)-N,N-dimethylnicotinamide], the pEC50 in assay [1] is 6.48. Moreover, the Emax in assay [1] was 80%; in assay [2] (setting [4]), 14%. Also, in assay [2] (setting [3]), the “LXR alpha IP” value is reported as “No IP”.

With `CCOC(=O)N1CCN(C(=O)c2ccc(OCCCCC3CCN(C(=O)C(O)(c4ccccc4)C(F)(F)F)CC3)nc2Cl)CC1` (stereo not drawn) [Example 3-18, ethyl 4-(2-chloro-6-(4-(1-(3,3,3-trifluoro-2-hydroxy-2-phenylpropanoyl)piperidin-4-yl)butoxy)nicotinoyl) piperazine-l-carboxylate], the figures for the pEC50 in assay [1] and in assay [2] (setting [5]) were 7.77 and 6.30, respectively. The Emax in assay [1] was determined as 75%; in assay [2] (setting [4]), 33%.

As to `CN(C)C(=O)c1ccc(OCCCCC2CCN(C(=O)C(O)(c3ccccc3)C(F)(F)F)CC2)nc1C#N` (stereo not drawn) [Example 4-1, 2-cyano-N,N-dimethyl-6-(4-(1-(3,3,3-trifluoro-2-hydroxy-2-phenylpropanoyl)piperidin-4-yl)butoxy)nicotinamide], the pEC50 in assay [1] is 7.52; in assay [2] (setting [5]), 6.38. In addition, the Emax in assay [1] was 77%; in assay [2] (setting [4]), 37%.

With `CN(C)C(=O)c1ccc(OCCCCC2CCN(C(=O)C(O)(c3ccccn3)C(F)(F)F)CC2)nc1Cl` (stereo not drawn) [Example 6-1, 2-chloro-N,N-dimethyl-6-(4-(1-(3,3,3-trifluoro-2-hydroxy-2-(pyridin-2-yl)propanoyl)piperidin-4-yl)butoxy)nicotinamide], the pEC50 was 7.54 in assay [1] and 5.88 in assay [2] (setting [6]). In addition, the Emax came to 73% in assay [1] and 28% in assay [2] (efficacy (% Emax) in relation to reference dual agonist T0901317, read-out: LXR alpha actiivty at max dose).

These data come from US11655216B2 (priority 2016, dated 2023).
